≈ marks a conversion by molar mass, not a printed value. Calls of active or inactive are those of the source. The rule behind the calls is not given here.
Tests used:
[1] = system: Staphylococcus aureus; test: Antibacterial activity against Staphylococcus aureus ATCC 25923 after 18 hrs in presence of NaCl by CLSI based broth microdilution method (reference value: 16 microM); type: functional; conditions: ATCC 25923, 18 h
[2] = Hemolytic activity in human RBC at 256 uM measured after 1 hr by microplate reader analysis relative to control; type: ADME, cell-based, Erythrocyte; conditions: human red blood cells (erythrocytes), read-out: Activity
[3] = system: Escherichia coli; test: Antibiofilm activity against Escherichia coli ATCC 25922 assessed as reduction in biofilm inhibition at MIC after 24 hrs by crystal violet staining based assay relative to control; type: functional
[4] = system: Escherichia coli; test: Ratio of MIC for Escherichia coli ATCC 25922 preincubated for 1 hr in presence of 10% mouse serum and measured after 18 hrs to MIC for antibacterial activity against Escherichia coli ATCC 25922 after 18 hrs; type: functional
[5] = Selectivity index, ratio of MHC10 for human RBC to geometric mean of peptide MIC for gram negative bacteria; type: toxicity; conditions: human red blood cells, read-out: Selectivity Index
[6] = system: Escherichia coli; test: Induction of membrane disruption in Escherichia coli ATCC 25922 assessed as rough membrane surface at 4 times of MIC after 2 hrs by SEM analysis; type: functional, organism-based
[7] = system: Escherichia coli; test: Ratio of antibacterial activity against Escherichia coli ATCC 25922 in presence of KCl to antibacterial activity against Escherichia coli ATCC 25922; type: functional
[8] = system: Staphylococcus aureus; test: Antibiofilm activity against Staphylococcus aureus ATCC 25923 at 1 to 2 times of MIC after 24 hrs by crystal violet staining based assay; type: functional, organism-based
[9] = system: Klebsiella pneumoniae; test: Antibacterial activity against Klebsiella pneumoniae ATCC 700603 after 18 hrs by CLSI based broth microdilution method; type: functional; conditions: Klebsiella pneumoniae, 700603, 18 h
[10] = system: Staphylococcus aureus; test: Antibacterial activity against Staphylococcus aureus ATCC 25923 after 18 hrs in presence of MgCl2 by CLSI based broth microdilution method (reference value: 8 microM); type: functional; conditions: ATCC 25923, 18 h
[11] = system: Escherichia coli; test: Antimicrobial activity against Escherichia coli ATCC 25922 preincubated for 1 hr in presence of 10% mouse serum and measured after 18 hrs by CLSI-based broth microdilution assay (reference value: 16 microM); type: functional
[12] = system: Escherichia coli; test: Antimicrobial activity against Escherichia coli ATCC 25922 preincubated for 6 hrs in presence of 10% mouse serum and measured after 18 hrs by CLSI-based broth microdilution assay (reference value: 16 microM); type: functional
[13] = system: Staphylococcus aureus; test: Antibiofilm activity against Staphylococcus aureus ATCC 25923 at 2 times of MIC after 24 hrs by crystal violet staining based assay; type: functional, organism-based
[14] = system: Staphylococcus aureus; test: Antibacterial activity against Staphylococcus aureus ATCC 25923 after 18 hrs in presence of NaCl by CLSI based broth microdilution method (reference value: 8 microM); type: functional; conditions: ATCC 25923, 18 h
[15] = system: Staphylococcus aureus; test: Antibacterial activity against Staphylococcus aureus ATCC 25923 after 18 hrs in presence of KCl by CLSI based broth microdilution method (reference value: 8 microM); type: functional; conditions: ATCC 25923, 18 h
[16] = system: Escherichia coli; test: Antibacterial activity against Escherichia coli ATCC 25922 after 18 hrs in presence of MgCl2 by CLSI based broth microdilution method (reference value: 16 microM); type: functional; conditions: ATCC 25922, 18 h
[17] = system: Staphylococcus aureus; test: Antibacterial activity against Staphylococcus aureus ATCC 25923 after 18 hrs in presence of FeCl3 by CLSI based broth microdilution method (reference value: 8 microM); type: functional; conditions: ATCC 25923, 18 h
[18] = system: Pseudomonas aeruginosa; test: Antibiofilm activity against Pseudomonas aeruginosa ATCC 27853 at 2 times of MIC after 24 hrs by crystal violet staining based assay; type: functional, organism-based
[19] = Cytotoxicity against mouse RAW264.7 cells assessed as cell proliferation at 16 uM after 1 hr by MTT assay relative to control; type: cell-based; conditions: read-out: Activity
[20] = system: Escherichia coli; test: Antibacterial activity against Escherichia coli ATCC 25922 after 18 hrs in presence of KCl by CLSI based broth microdilution method (reference value: 16 microM); type: functional; conditions: ATCC 25922, 18 h
[21] = system: Escherichia coli; test: Antibacterial activity against Escherichia coli ATCC 25922 after 18 hrs in presence of FeCl3 by CLSI based broth microdilution method (reference value: 16 microM); type: functional; conditions: ATCC 25922, 18 h
[22] = system: Escherichia coli; test: Antibiofilm activity against Escherichia coli ATCC 25922 assessed as reduction in biofilm inhibition at 0.5 to 1 times of MIC after 24 hrs by crystal violet staining based assay; type: functional, organism-based
[23] = system: Escherichia coli; test: Antibacterial activity against Escherichia coli ATCC 25922 after 18 hrs in presence of NaCl by CLSI based broth microdilution method (reference value: 16 microM); type: functional; conditions: ATCC 25922, 18 h
[24] = system: Pseudomonas aeruginosa; test: Antibiofilm activity against Pseudomonas aeruginosa ATCC 27853 at 1 to 2 times of MIC after 24 hrs by crystal violet staining based assay; type: functional, organism-based

SMILES	Ratio [4]	selectivity ratio [5]	Activity [6]	Ratio [7]	MIC [9]	MIC [11]	MIC [12]	inhibition [13]	MIC [16]	MIC [20]	MIC [21]	inhibition [22]	MIC [23]	further results
CCCCCCCC(=O)NC(Cc1cn(CCCC[C@H](NC(C)=O)C(=O)NCC(=O)N[C@@H](CC(C)C)C(=O)N[C@@H](CC(C)C)C(=O)N[C@H](CCCCN)C(=O)N[C@@H](CCCNC(=N)N)C(=O)N[C@H](C(=O)N[C@H](CCCCN)C(=O)N[C@H](C(=O)N[C@@H](CC(C)C)C(=O)N[C@@H](CC(C)C)C(N)=O)[C@@H](C)O)[C@@H](C)CC)nn1)C(=O)NCC(=O)N[C@@H](CC(C)C)C(=O)N[C@@H](CC(C)C)C(=O)N[C@H](CCCCN)C(=O)N[C@@H](CCCNC(=N)N)C(=O)N[C@H](C(=O)N[C@H](CCCCN)C(=O)N[C@H](C(=O)N[C@@H](CC(C)C)C(=O)N[C@@H](CC(C)C)C(N)=O)[C@@H](C)O)[C@@H](C)CC (some centres not stated)	2	14.2	Active	2 - 4	16 µM (≈ 43.6 µg/mL)	–	–	–	–	–	–	–	–	MIC [1]: 32 µM; hemolysis at 1 h, 256 µM [2]: < 5%; inhibition (INH) [3]: >50%; inhibition [8]: Active
CCCCCCCCCC(=O)NCC(=O)N[C@@H](CC(C)C)C(=O)N[C@@H](CC(C)C)C(=O)N[C@H](CCCCN)C(=O)N[C@@H](CCCNC(=N)N)C(=O)N[C@H](C(=O)N[C@H](CCCCN)C(=O)N[C@H](C(=O)N[C@@H](CC(C)C)C(=O)N[C@@H](CC(C)C)C(N)=O)[C@@H](C)O)[C@@H](C)CC	1	5.33	Active	2 - 4	16 µM (≈ 20.9 µg/mL)	16 µM	16 µM	Active	16 µM	16 µM	8 µM	Active	32 µM	MIC [10]: 8 µM; MIC [14]: 8 µM; MIC [15]: 8 µM; MIC [17]: 8 µM; inhibition [18]: Active; viability at 1 h, 16 µM [19]: < 80%
CCCCCCCCCCCC(=O)NCC(=O)N[C@@H](CC(C)C)C(=O)N[C@@H](CC(C)C)C(=O)N[C@H](CCCCN)C(=O)N[C@@H](CCCNC(=N)N)C(=O)N[C@H](C(=O)N[C@H](CCCCN)C(=O)N[C@H](C(=O)N[C@@H](CC(C)C)C(=O)N[C@@H](CC(C)C)C(N)=O)[C@@H](C)O)[C@@H](C)CC	1	1.14	Active	2 - 4	8 µM (≈ 10.7 µg/mL)	16 µM	32 µM	Active	16 µM	4 µM	4 µM	Active	16 µM	inhibition [24]: Active

From ChEMBL document CHEMBL4359906, “Design and synthesis of new N-terminal fatty acid modified-antimicrobial peptide analogues with potent in vitro biological activity” (Eur J Med Chem, 2019)
